From patent US10913710B2, “Benzene disulfonamide for the treatment of cancer” (priority 2017, dated 2021) come the findings set out here.

pKd: −log10 of the molar value.

One experiment concerns the target PDEδ (Homo sapiens (Human), UniProt O43924). The experiment is described as follows: Fluorescence polarization competition binding assay: displacement titration of labeled Atorvastatin probe for KD.
Conditions: not given
The method, then:
Example D.2: Displacement Titrations of Labeled Atorvastatin-Probe for the Determination of KD Values
Displacement Titrations of Labeled Atorvastatin-Probe for the Determination of KD Values:
The purification was followed by size exclusion gel filtration on a Superdex 75 S26/60 column using buffer A (25 mM Tris-HCl, pH 7.5, 150 mM NaCl and 3 mM DTE).
For orientation: Fluorescence polarisation rises when a labelled molecule tumbles more slowly, as on binding a larger partner.
A word on the pKd: it is −log10 of the Kd, conventionally taken in molar units. `CC(C)(C)[Si](C)(C)Oc1ccc(CNS(=O)(=O)c2ccc(S(=O)(=O)N(Cc3ccc(Cl)cc3)C3CCCC3)cc2)cc1` [Compound 15]: the pKd was 7.00 to 7.52.

The same experiment, now with this note: fluorescence polarization assay; activity classes; read-out: KD.
Regarding `O=S(=O)(NCC1CCCO1)c1ccc(S(=O)(=O)N(Cc2ccc(Cl)cc2)Cc2ccco2)cc1` (centres unmarked) [Compound 99, N1-(4-chlorobenzyl)-N1-(furan-2-ylmethyl)-N4-((tetrahydrofuran-2-yl)methyl)benzene-1,4-disulfonamide], the pKd was 6.00 to 7.00. Still for that read-out and setting: the result for `O=S(=O)(c1ccc(S(=O)(=O)N(Cc2cc(Br)cc(C(F)(F)F)c2)C2CCCC2)cc1)N(Cc1ccccc1)CC1CCNCC1` [Compound 25, N1-benzyl-N4-(3-bromo-5-(trifluoromethyl)benzyl)-N4-cyclopentyl-N1-(piperidin-4-ylmethyl)benzene-1,4-disulfonamide] reads 6.00 to 7.00; that for `O=S(=O)(c1ccc(S(=O)(=O)N(Cc2ccc(Cl)cc2)C2CCCC2)cc1)N(Cc1ccccc1Br)CC1CCCCC1` [Compound 34, N1-(2-bromobenzyl)-N4-(4-chlorobenzyl)-N1-(cyclohexylmethyl)-N4-cyclopentylbenzene-1,4-disulfonamide], 7.00 to 7.52; that for `CCOc1ccc(CN(Cc2ccc(OC)cc2)S(=O)(=O)c2ccc(S(=O)(=O)N3CCCCC3)cc2)cc1` [Compound 85, N-(4-ethoxybenzyl)-N-(4-methoxybenzyl)-4-(piperidin-1-ylsulfonyl)benzenesulfonamide], 6.00 to 7.00. Still for that read-out and setting: the result for `CCOC(=O)c1ccccc1CN(CC1CCOCC1)S(=O)(=O)c1ccc(S(=O)(=O)N(Cc2ccc(Cl)cc2)C2CCCC2)cc1` [Compound 40, ethyl 2-(((4-(N-(4-chlorobenzyl)-N-cyclopentylsulfamoyl)-N-((tetrahydro-2H-pyran-4-yl)methyl)phenyl)sulfonamido)methyl)benzoate] reads 6.00 to 7.00; that for `O=S(=O)(c1ccc(S(=O)(=O)N(Cc2ccc(Cl)cc2)Cc2ccco2)cc1)N1CCCCCC1` [Compound 52, 4-(azepan-1-ylsulfonyl)-N-(4-chlorobenzyl)-N-(furan-2-ylmethyl)benzenesulfonamide], 6.00 to 7.00. Turning to `O=S(=O)(NC1CCCCC1)c1ccc(S(=O)(=O)N(Cc2ccccc2)Cc2ccco2)cc1` [Compound 54, N1-benzyl-N4-cyclohexyl-N1-(furan-2-ylmethyl)benzene-1,4-disulfonamide], the pKd was 6.00 to 7.00. On the same count and under the same terms, the result for `O=S(=O)(c1ccc(S(=O)(=O)N(Cc2cnc(Cl)cn2)C2CCCC2)cc1)N(Cc1ccccc1)CC1CCNCC1` [Compound 12, N1-benzyl-N4-((5-chloropyrazin-2-yl)methyl)-N4-cyclopentyl-N1-(piperidin-4-ylmethyl)benzene-1,4-disulfonamide] reads 7.52 to 9.00; that for `Cc1ccsc1N(Cc1ccccn1)S(=O)(=O)c1ccc(S(=O)(=O)N(Cc2ccccn2)c2sccc2C)cc1` [Compound 41], less than 6.00; that for `CCOc1ccc(CN(CC2CCCO2)S(=O)(=O)c2ccc(S(=O)(=O)N3CCCCC3)cc2)cc1` (centres unmarked) [Compound 79, N-(4-ethoxybenzyl)-4-(piperidin-1-ylsulfonyl)-N-((tetrahydrofuran-2-yl)methyl)benzenesulfonamide], less than 6.00. The same measure, in the same setting: under `CC(C)c1ccc(CN(CC2CCCO2)S(=O)(=O)c2ccc(S(=O)(=O)NCc3ccccc3)cc2)cc1` (centres unmarked) [Compound 63, N1-benzyl-N4-(4-isopropylbenzyl)-N4-((tetrahydrofuran-2-yl)methyl)benzene-1,4-disulfonamide] stands 7.52 to 9.00; under `O=S(=O)(c1ccc(S(=O)(=O)N(Cc2cccc(Br)c2)C2CCCC2)cc1)N(Cc1ccccc1)CC1CCNCC1` [Compound 17, N1-benzyl-N4-(3-bromobenzyl)-N4-cyclopentyl-N1-(piperidin-4-ylmethyl)benzene-1,4-disulfonamide], 7.00 to 7.52. The same measure, in the same setting: under `CC1CCCN(S(=O)(=O)c2ccc(S(=O)(=O)N(Cc3ccc4c(c3)OCO4)Cc3ccccc3F)cc2)C1` (centres unmarked) [Compound 72, N-(benzo[d][1,3]dioxol-5-ylmethyl)-N-(2-fluorobenzyl)-4-((3-methylpiperidin-1-yl)sulfonyl)benzenesulfonamide] stands 6.00 to 7.00; under `CCN(CC)S(=O)(=O)c1ccc(S(=O)(=O)N(Cc2ccc(OC)c(OC)c2)C2CCCCC2C)cc1` (centres unmarked) [Compound 68, N1-(3,4-dimethoxybenzyl)-N4,N4-diethyl-N1-(2-methylcyclohexyl)benzene-1,4-disulfonamide], 7.52 to 9.00; under `Cc1ccc(CN(C2CCCC2)S(=O)(=O)c2ccc(S(=O)(=O)N(Cc3ccccn3)c3sccc3C)cc2)cc1Cl` [Compound 43], 6.00 to 7.00. For `CNc1ncc(Br)c(CN(CC2CCCCC2)S(=O)(=O)c2ccc(S(=O)(=O)N(Cc3ccc(Cl)cc3)C3CCCC3)cc2)n1` [Compound 5, N1-((5-bromo-2-(methylamino)pyrimidin-4-yl)methyl)-N4-(4-chlorobenzyl)-N1-(cyclohexylmethyl)-N4-cyclopentylbenzene-1,4-disulfonamide], the pKd is 7.00 to 7.52. Same read-out and setting: the result for `O=S(=O)(NCc1ccccc1)c1ccc(S(=O)(=O)N(Cc2ccco2)Cc2ccccc2F)cc1` [Compound 66, N1-benzyl-N4-(2-fluorobenzyl)-N4-(furan-2-ylmethyl)benzene-1,4-disulfonamide] reads less than 6.00; that for `O=S(=O)(c1ccc(S(=O)(=O)N(Cc2ccc(Cl)cc2)C2CCCC2)cc1)N(CCCO)CC1CCCCC1` [Compound 32], 7.00 to 7.52; that for `CC(C)(C)c1cc(Br)cc(CN(C2CCCC2)S(=O)(=O)c2ccc(S(=O)(=O)N(Cc3ccccc3)CC3CCNCC3)cc2)c1` [Compound 24, N1-benzyl-N4-(3-bromo-5-(tert-butyl)benzyl)-N4-cyclopentyl-N1-(piperidin-4-ylmethyl)benzene-1,4-disulfonamide], 7.00 to 7.52. The same measure, in the same setting: under `O=S(=O)(NCC1CCNCC1)c1ccc(S(=O)(=O)N(Cc2ccc(Cl)cc2)C2CCCC2)cc1` [Compound 45, N1-(4-chlorobenzyl)-N1-cyclopentyl-N4-(piperidin-4-ylmethyl)benzene-1,4-disulfonamide] stands 7.52 to 9.00. As to `CN(Cc1ccccc1)S(=O)(=O)c1ccc(S(=O)(=O)N(Cc2ccc(F)cc2)C2CCCCC2)cc1` [Compound 61, N1-benzyl-N4-cyclohexyl-N4-(4-fluorobenzyl)-N1-methylbenzene-1,4-disulfonamide], the negative logarithm of the Kd (pKd) was 7.52 to 9.00. The same measure, in the same setting: the result for `CCN(Cc1ccccc1)S(=O)(=O)c1ccc(S(=O)(=O)N(Cc2ccc(F)cc2)Cc2ccco2)cc1` [Compound 47, N1-benzyl-N1-ethyl-N4-(4-fluorobenzyl)-N4-(furan-2-ylmethyl)benzene-1,4-disulfonamide] reads 7.00 to 7.52; that for `O=S(=O)(NC1CCCC1)c1ccc(S(=O)(=O)N(Cc2ccc(F)cc2)Cc2ccc(F)cc2)cc1` [Compound 93, N1-cyclopentyl-N4,N4-bis(4-fluorobenzyl)benzene-1,4-disulfonamide], 6.00 to 7.00; that for `O=S(=O)(c1ccc(S(=O)(=O)N(Cc2ccc(Cl)cc2)C2CCCC2)cc1)N(Cc1ccccc1)CC1CCCNC1` (centres unmarked) [Compound 26, N1-benzyl-N4-(4-chlorobenzyl)-N4-cyclopentyl-N1-(piperidin-3-ylmethyl)benzene-1,4-disulfonamide], 7.52 to 9.00. In the case of `O=S(=O)(NC1CCCCC1)c1ccc(S(=O)(=O)N(Cc2ccccc2)CC2CCCO2)cc1` (centres unmarked) [Compound 65, N1-benzyl-N4-cyclohexyl-N1-((tetrahydrofuran-2-yl)methyl)benzene-1,4-disulfonamide], the negative logarithm of the Kd (pKd) was 7.52 to 9.00.

Take `O=S(=O)(c1ccc(S(=O)(=O)N(Cc2ccc(Cl)cc2)C2CCCC2)cc1)N(CCCCO)CC1CCCCC1` [Compound 33]: the pKd is 6.00 to 7.00. In the case of `O=S(=O)(c1ccc(S(=O)(=O)N(Cc2ccc(Cl)cc2)C2CCCC2)cc1)N(Cc1ccccc1)CC1CCCCC1` [Compound 9, N1-benzyl-N4-(4-chlorobenzyl)-N1-(cyclohexylmethyl)-N4-cyclopentylbenzene-1,4-disulfonamide], the pKd is 7.52 to 9.00. Consider `O=S(=O)(NC1CCCC1)c1ccc(S(=O)(=O)N(Cc2ccccc2)Cc2ccccc2Cl)cc1` [Compound 98, N1-benzyl-N1-(2-chlorobenzyl)-N4-cyclopentylbenzene-1,4-disulfonamide], for which the pKd is 7.52 to 9.00. On the same count and under the same terms, under `O=S(=O)(NC1CCCC1)c1ccc(S(=O)(=O)N(Cc2ccccc2)Cc2ccccn2)cc1` [Compound 92, N1-benzyl-N4-cyclopentyl-N1-(pyridin-2-ylmethyl)benzene-1,4-disulfonamide] stands 7.52 to 9.00. Same read-out and setting: the result for `O=S(=O)(NCC1CCCO1)c1ccc(S(=O)(=O)N(Cc2ccc(F)cc2)C2CCCCC2)cc1` (centres unmarked) [Compound 88, N1-cyclohexyl-N1-(4-fluorobenzyl)-N4-((tetrahydrofuran-2-yl)methyl)benzene-1,4-disulfonamide] reads 6.00 to 7.00; that for `COc1cccc(CN(Cc2ccco2)S(=O)(=O)c2ccc(S(=O)(=O)NCC3CCCO3)cc2)c1` (centres unmarked) [Compound 84, N1-(furan-2-ylmethyl)-N1-(3-methoxybenzyl)-N4-((tetrahydrofuran-2-yl)methyl)benzene-1,4-disulfonamide], 7.52 to 9.00. The same measure, in the same setting: under `COc1ccc(CN(C2CCCCC2C)S(=O)(=O)c2ccc(S(=O)(=O)N(C)C3CCCCC3)cc2)cc1OC` (centres unmarked) [Compound 57, N1-cyclohexyl-N4-(3,4-dimethoxybenzyl)-N1-methyl-N4-(2-methylcyclohexyl)benzene-1,4-disulfonamide] stands 6.00 to 7.00; under `COC(=O)c1ccc(CN(CC2CCNCC2)S(=O)(=O)c2ccc(S(=O)(=O)N(Cc3ccc(Cl)cc3)C3CCCC3)cc2)cc1N` [Compound 23, methyl 2-amino-4-(((4-(N-(4-chlorobenzyl)-N-cyclopentylsulfamoyl)-N-(piperidin-4-ylmethyl)phenyl)sulfonamido)methyl)benzoate], 7.52 to 9.00. For the compound `CC(C)(C)OC(=O)N1CCC(CN(Cc2ccccc2)S(=O)(=O)c2ccc(S(=O)(=O)N(Cc3cc(Br)cc(Br)c3)C3CCCC3)cc2)CC1` [Compound 4, tert-butyl 4-(((N-benzyl-4-(N-cyclopentyl-N-(3,5-dibromobenzyl)sulfamoyl)phenyl)sulfonamido)methyl)piperidine-1-carboxylate], the negative-log Kd (pKd) is 6.00 to 7.00.
